Data reported in article PMC11778240, “Synthesis and preclinical evaluation of tigilanol tiglate analogs as latency-reversing agents for the eradication of HIV” (Science Advances, 2025).

Experiments:
[1] = tested on: mast cell tumors; conditions: mast cell tumors in canines; cited from earlier work
[2] = tested on: interleukin-8; test: IL-8 ELISA, A549 cells; assay type: cell-based, Human; conditions: 24 hours
Method: Because SUW402 and SUW431 are potent activators of NF-κB, we used an enzyme-linked immunosorbent assay to measure their ability to up-regulate inflammatory cytokine production (tumor necrosis factor–α and interleukin-8). We stimulated A549 cells with SUW402 and SUW431 at the same concentrations used in the NF-κB activation assay: 500 and 50 nM (figs. S1 and S2). […] At 500 or 50 nM, both SUW402 and SUW431 produced only modest levels of interleukin-8, a 15 to 25% increase relative to the DMSO negative control.
Enzyme Linked Immunosorbent Assay (ELISA) for SUW402 and SUW431 mediated IL-8 and […]
In efforts to replicate the conditions of the in vitro NF -κB assay, 5 x 10^4 A549 cells were plated per well on Corning® 96-well Clear Round Bottom TC-treated Microplates in 180 μl of pre-warmed DMEM (4.5 g/L glucose, 10% FBS, and 1% Pen-Strep-Glutamine (100 X, 50 mg/mL)).
Following incubation at 37 °C in 5% CO2 for approximately 24 hours to allow for cell adherence, 1.8 μl of either SUW402 or SUW431 were added in triplicate to their respective wells to achieve a final compound concentration of either 50 nM or 500 nM, the two concentrations tested in the NF-κB assay. 24 hours after compound addition, the microplate containing cells treated with compound was spun at 1800 rpm for 3 minutes to allow for pelleting of cells and other debris before 150 μL of cellular supernatant was aspirated and transferred to a new Corning® 96 -well Clear Round Bottom TC-treated Microplate. Note that if the supernatant is not meant to be immediately analyzed, the microplate containing cellular supernatant should be paraf ilm, wrapped, and stored at -80 °C. Careful attention should be paid to avoiding freeze-thaw cycles. To quantify cytokine secretion within samples, dilutions were performed using Assay Buffer A included in the LEGEND MAX™ Human IL-8 ELISA Kit (Cat # 431507) and LEGEND MAX™ Human TNF-α ELISA Kit (Cat # 430207), respectively.
Immediately before running the assay, reagents were allowed to come to room temperature and diluted. Note that if the supernatant is frozen, it should be removed at this time and allowed to thaw. The 1X Wash Buffer was prepared by diluting the 20X Wash Buf fer with Invitrogen™ UltraPure™ DNase/RNase-Free Distilled Water. The lyophilized human IL-8 and TNF-α standards were reconstituted by adding the appropriate volume of Assay Buffer A to prepare the 20 ng/mL standard stock solutions. The reconstituted stand ards were allowed to sit at room temperature for 20 minutes before being gently vortexed to ensure complete mixing. To generate a standard curve for each cytokine, 500 μL of a 1,000 pg/mL top standard was prepared after which six two -fold serial dilutions of the top standard were performed in 1.7 mL microcentrifuge tubes using Assay […]

SMILES	cure rate [1]	IL-8 (ELISA) ([2]; 50 nM)	IL-8 (ELISA) ([2]; 500 nM)
C/C=C(\C)C(=O)O[C@@H]1[C@@H](C)[C@@]2(O)[C@H]([C@@H]3C(C)(C)[C@]13OC(=O)[C@@H](C)CC)[C@@H]1O[C@]1(CO)[C@@H](O)[C@]1(O)C(=O)C(C)=C[C@H]12 [EBC-46, Tigilanol tiglate]	≤ 88%		
C/C=C(\C)C(=O)O[C@@H]1[C@@H](C)[C@@]2(O)[C@@H](C=C(CO)C[C@]3(O)C(=O)C(C)=C[C@@H]23)[C@@H]2C(C)(C)[C@]12OC(=O)[C@@H](C)CC [SUW402]		3352 pg/mL	3106 pg/mL
C/C=C(\C)C(=O)O[C@@H]1[C@@H](C)[C@@]2(O)[C@H]([C@@H]3C(C)(C)[C@]13OC(=O)Cc1cccc3ccccc13)[C@@H]1O[C@]1(CO)[C@@H](O)[C@]1(O)C(=O)C(C)=C[C@H]12 [SUW431]		3369 pg/mL	3232 pg/mL
